Values joined by “and” are separate entries in the source; they are usually repeats but may differ in a detail not shown here. Equal entries are not always repeated. Toxic doses and inconclusive results are not listed.

This assay has as its system B6C3F1 mice, intracerebral ependymoblastoma, median survival T/C. Put plainly: NCI In Vivo Anticancer Drug Screen. Data for tumor model Ependymoblastoma (intracerebral) in B6C3F1 mice. As to conditions: endpoint: median survival time, higher = longer survival. As for the experimental part:
The antitumor activity of compounds was measured in mice bearing transplantable tumors. Survival or tumor size were measured and the results are expressed as the measurement made in the treated group (T) divided by the measurement made in the vehicle treated control group (C). The tumor model used in this assay is Ependymoblastoma (intracerebral) in B6C3F1 mice

[1] abbreviates: dose: 4.0 mg/kg/injection, schedule: Q01DX005 (ip), vehicle: Klucel (hydroxypropylcellulose) (HPC).
[2] abbreviates: dose: 4.0 mg/kg/injection, schedule: Q01DX005 (ip), vehicle: saline with Tween-80.
[3] abbreviates: dose: 8.0 mg/kg/injection, schedule: Q01DX005 (ip), vehicle: saline with Tween-80.
Setting [4] is: dose: 16.0 mg/kg/injection, schedule: Q01DX005 (ip), vehicle: Klucel (hydroxypropylcellulose) (HPC).
The mark [5] stands for this setting: dose: 16.0 mg/kg/injection, schedule: Q01DX005 (ip), vehicle: saline with Tween-80.
[6] abbreviates: dose: 64.0 mg/kg/injection, schedule: Q01DX005 (ip), vehicle: Klucel (hydroxypropylcellulose) (HPC).
[7] abbreviates: dose: 64.0 mg/kg/injection, schedule: Q01DX005 (ip), vehicle: saline with Tween-80.
[8] abbreviates: dose: 64.0 mg/kg/injection, schedule: Q01DX005 (ip), vehicle: water.
[9] abbreviates: dose: 32.0 mg/kg/injection, schedule: Q01DX005 (ip), vehicle: saline with Tween-80.

In the case of `C[C@@H](CN1CC(=O)NC(=O)C1)N1CC(=O)NC(=O)C1`, the T/C is, setting by setting: under setting [1], 112 % of control and 120 % of control; under setting [2], 116 % of control and 117 % of control; (dose: 4.0 mg/kg/injection, schedule: Q01DX005 (ip), vehicle: water) 102 % of control; under setting [3], 108 % of control; under setting [4], 108 % of control and 111 % of control; under setting [5], 114 % of control and 118 % of control. The T/C (dose: 16.0 mg/kg/injection, schedule: Q01DX005 (ip), vehicle: water) was 105 % of control; the T/C (dose: 32.0 mg/kg/injection, schedule: Q01DX005 (ip), vehicle: saline) was 102 % of control and 114 % of control; the T/C (dose: 32.0 mg/kg/injection, schedule: Q01DX005 (oral), vehicle: saline) is 109 % of control; the T/C under setting [6] was 107 % of control and 115 % of control; the T/C under setting [7] is 114 % of control; the T/C (dose: 64.0 mg/kg/injection, schedule: Q01DX005 (ip), vehicle: saline) is 123 % of control. The T/C under setting [8] was 108 % of control; the T/C (dose: 128.0 mg/kg/injection, schedule: Q01DX005 (ip), vehicle: saline) was 120 % of control; the T/C (dose: 128.0 mg/kg/injection, schedule: Q#A X002 (ip), vehicle: saline) was 103 % of control; the T/C (dose: 256.0 mg/kg/injection, schedule: Q01DX001 (ip), vehicle: saline) was 107 % of control and 111 % of control and 113 % of control; the T/C (dose: 256.0 mg/kg/injection, schedule: Q01DX001 (oral), vehicle: saline) was 109 % of control and 123 % of control and 124 % of control; the T/C (dose: 256.0 mg/kg/injection, schedule: Q01DX005 (ip), vehicle: Klucel (hydroxypropylcellulose) (HPC)) was 112 % of control and 122 % of control. The T/C was 120 % of control and 122 % of control (dose: 256.0 mg/kg/injection, schedule: Q01DX005 (ip), vehicle: saline); 113 % of control (dose: 256.0 mg/kg/injection, schedule: Q#A X002 (ip), vehicle: saline); 109 % of control and 118 % of control (dose: 512.0 mg/kg/injection, schedule: Q01DX001 (ip), vehicle: saline); 119 % of control and 121 % of control (dose: 512.0 mg/kg/injection, schedule: Q01DX001 (oral), vehicle: saline); 121 % of control (dose: 512.0 mg/kg/injection, schedule: Q#A X002 (ip), vehicle: saline); 114 % of control and 121 % of control (dose: 1024.0 mg/kg/injection, schedule: Q01DX001 (ip), vehicle: saline). For the same compound, the T/C by setting is: (dose: 1024.0 mg/kg/injection, schedule: Q01DX001 (oral), vehicle: saline) 119 % of control; (dose: 1024.0 mg/kg/injection, schedule: Q#A X002 (ip), vehicle: saline) 121 % of control; (dose: 2048.0 mg/kg/injection, schedule: Q01DX001 (oral), vehicle: saline) 102 % of control and 121 % of control.

Take `COc1cc2c(c3c1c(=O)c1ccccc1n3C)C=CC(C)(C)O2`: the T/C by setting is: under setting [6], 114 % of control; (dose: 128.0 mg/kg/injection, schedule: Q01DX005 (ip), vehicle: suspension in saline) 108 % of control; (dose: 256.0 mg/kg/injection, schedule: Q01DX005 (ip), vehicle: suspension in saline) 120 % of control.

Regarding `O=NN(CCCl)C(=O)NC1CCN(Cc2ccccc2)CC1`, the T/C reads like this: (dose: 12.5 mg/kg/injection, schedule: Q01DX001 (ip), vehicle: water) 124 % of control; (dose: 50.0 mg/kg/injection, schedule: Q01DX001 (ip), vehicle: water) 160 % of control; (dose: 100.0 mg/kg/injection, schedule: Q01DX001 (ip), vehicle: water) 242 % of control.

As to `NC(=O)N(CCCl)N=O`, the T/C by setting is: (dose: 1.0 mg/kg/injection, schedule: Q01DX001 (ip), vehicle: saline + alcohol) 121 % of control; (dose: 4.0 mg/kg/injection, schedule: Q01DX001 (ip), vehicle: saline + alcohol) 184 % of control.

For `c1cc2n(n1)CCN2`, the T/C was 93 % of control and 88 % of control (dose: 32.0 mg/kg/injection, schedule: Q01DX005 (ip), vehicle: water); 100 % of control (dose: 32.0 mg/kg/injection, schedule: Q#A X006 (ip), vehicle: water); 93 % of control and 94 % of control (dose: 64.0 mg/kg/injection, schedule: Q01DX001 (ip), vehicle: water); 100 % of control and 106 % of control (dose: 64.0 mg/kg/injection, schedule: Q01DX001 (oral), vehicle: water); 102 % of control and 104 % of control under setting [8]; 98 % of control (dose: 64.0 mg/kg/injection, schedule: Q01DX005 (oral), vehicle: water). For the same compound, the T/C (dose: 64.0 mg/kg/injection, schedule: Q#A X002 (ip), vehicle: water) is 98 % of control; the T/C (dose: 64.0 mg/kg/injection, schedule: Q#A X004 (ip), vehicle: water) was 94 % of control; the T/C (dose: 64.0 mg/kg/injection, schedule: Q#A X006 (ip), vehicle: water) is 102 % of control; the T/C (dose: 128.0 mg/kg/injection, schedule: Q01DX001 (ip), vehicle: water) was 92 % of control and 93 % of control; the T/C (dose: 128.0 mg/kg/injection, schedule: Q01DX001 (oral), vehicle: water) was 103 % of control and 108 % of control; the T/C (dose: 128.0 mg/kg/injection, schedule: Q01DX005 (ip), vehicle: water) was 91 % of control and 113 % of control. Moreover, the T/C reads like this: (dose: 128.0 mg/kg/injection, schedule: Q01DX005 (oral), vehicle: water) 104 % of control; (dose: 128.0 mg/kg/injection, schedule: Q#A X002 (ip), vehicle: water) 100 % of control; (dose: 128.0 mg/kg/injection, schedule: Q#A X004 (ip), vehicle: water) 109 % of control; (dose: 128.0 mg/kg/injection, schedule: Q#A X006 (ip), vehicle: water) 102 % of control; (dose: 256.0 mg/kg/injection, schedule: Q01DX001 (ip), vehicle: water) 92 % of control and 100 % of control; (dose: 256.0 mg/kg/injection, schedule: Q01DX001 (oral), vehicle: water) 98 % of control and 100 % of control. Moreover, the T/C reads like this: (dose: 256.0 mg/kg/injection, schedule: Q01DX005 (ip), vehicle: water) 106 % of control; (dose: 256.0 mg/kg/injection, schedule: Q01DX005 (oral), vehicle: water) 116 % of control; (dose: 256.0 mg/kg/injection, schedule: Q#A X002 (ip), vehicle: water) 98 % of control; (dose: 256.0 mg/kg/injection, schedule: Q#A X006 (ip), vehicle: water) 115 % of control; (dose: 512.0 mg/kg/injection, schedule: Q01DX001 (ip), vehicle: water) 106 % of control and 122 % of control; (dose: 512.0 mg/kg/injection, schedule: Q01DX001 (oral), vehicle: water) 103 % of control and 121 % of control. The T/C (dose: 1024.0 mg/kg/injection, schedule: Q01DX001 (ip), vehicle: water) was 109 % of control.

For the compound `CCC(C)N(C)/N=N/c1nc[nH]c1C(N)=O` (stereo not drawn), the T/C under setting [9] was 151 % of control; the T/C under setting [7] was 153 % of control; the T/C (dose: 128.0 mg/kg/injection, schedule: Q01DX005 (ip), vehicle: saline with Tween-80) is 153 % of control.

On to `Cc1[nH]c(=O)[nH]c(=O)c1N(CCF)CCCl`, for which the T/C is 90 % of control (dose: 2.0 mg/kg/injection, schedule: Q01DX005 (ip), vehicle: Klucel (hydroxypropylcellulose) (HPC)); 98 % of control and 100 % of control (dose: 2.0 mg/kg/injection, schedule: Q01DX005 (ip), vehicle: saline with Tween-80); 93 % of control and 108 % of control under setting [1]; 102 % of control and 105 % of control under setting [2]; 97 % of control and 114 % of control (dose: 8.0 mg/kg/injection, schedule: Q01DX005 (ip), vehicle: Klucel (hydroxypropylcellulose) (HPC)); 96 % of control and 100 % of control under setting [3]. Further, the T/C was 107 % of control and 89 % of control under setting [4]; 106 % of control and 107 % of control under setting [5]; 94 % of control and 123 % of control (dose: 32.0 mg/kg/injection, schedule: Q01DX005 (ip), vehicle: Klucel (hydroxypropylcellulose) (HPC)); 100 % of control under setting [9].

For the origin of these results see PubChem BioAssay AID226 (DTP/NCI, 2004).
